Each structure is given as a SMILES string.

Format in all cases: in vivo
Assay [1] deals with common cocklebur (Xanthium strumarium L.). As to the kind of experiment: Test Example 1: pot test, foliar treatment, visual growth inhibition. Particulars: 1000 g/ha, foliar treatment at 4.3 to 4.8-leaf stage, 22nd day after treatment, read-out: Growth inhibition rate (%) of common cocklebur Measured value. The source says:
In the present invention, a synergistic effect means a higher herbicidal activity of three active ingredients combined, than the simple sum of the respective herbicidal activities of the three active ingredients (the expected activity). The activity expected by the combination of three active ingredients can be calculated as follows (Colby S.R., "Weed", vol. 15, p. 20-22, 1967). […] Upland field soil was put into a 1/300,000 ha pot, and seeds of common cocklebur (Xanthium strumarium L.) were sown. […] Click, manufactured by BASF) and EC formulation containing dimethenamid-P as an active ingredient (tradename: Spectrum, manufactured by BASF) were diluted with water (in an amount corresponding to 1,000 L/ha) and applied for foliar treatment by a small sprayer. On the 22nd day after treatment, the state of growth of the common cocklebur was visually observed to determine the growth inhibition rate (%) in accordance with the following evalution standard. The growth inhibition rate (%) (measured value) and the growth inhibition rate (%) (calculated value) calculated by the Colby's formula are shown in Table 1.

Assay [2] has as its system rostrate sesbania (Sesbania rostrata Bremek. & Oberm.). In words: Test Example 8: pot test, soil treatment, visual growth inhibition. Particulars: 2000 g/ha, soil treatment, 28th day after treatment, read-out: Growth inhibition rate (%) of rostrate sesbania Measured value. The protocol:
Upland field soil was put into a 1/300,000 ha pot, and seeds of rostrate sesbania (Sesbania rostrata Bremek. & Oberm.) were sown. On the next day, predetermined amounts of ONEHOPE NYUZAI (tradename), Click (tradename), Spectrum (tradename) and Clio (tradename) were diluted with water (in an amount corresponding to 1,000 L/ha) and applied for soil treatment by a small sprayer.
On the 28th day after treatment, the state of growth of the rostrate sesbania was visually observed to determine the growth inhibition rate (%). The growth inhibition rate (%) (measured value) and the growth inhibition rate (%) calculated in the same manner as in the above Test Example 1 are shown in Table 8.

The test system of assay [3] is prickly sida (Sida spinosa L.). As to the kind of experiment: Test Example 10: pot test, soil treatment, visual growth inhibition. Particulars: 200 g/ha, soil treatment, 28th day after treatment, read-out: Growth inhibition rate (%) of prickly sida Measured value. As to the method: Upland field soil was put into a 1/300,000 ha pot, and seeds of prickly sida (Sida spinosa L.) were sown. On the next day, predetermined amounts of ONEHOPE NYUZAI (tradename), Click (tradename), Spectrum (tradename), Callisto (tradename) and Clio (tradename) were diluted with water (in an amount corresponding to 1,000 L/ha) and applied for soil treatment by a small sprayer.
On the 28th day after treatment, the state of growth of the prickly sida was visually observed to determine the growth inhibition rate (%). The growth inhibition rate (%) (measured value) and the growth inhibition rate (%) calculated in the same manner as in the above Test Example 1 are shown in Table 10.

The subject of assay [4] is guinea grass (Panicum maximum Jacq.). As to the kind of experiment: Test Example 15: pot test, soil and foliar treatment, visual growth inhibition. Particulars: Megathyrsus maximus, 31st day after treatment, read-out: Growth inhibition rate (%) of guinea grass Measured value. The protocol:
(§1) Upland field soil was put into a 1/1,000,000 ha pot, and seeds of guinea grass (Panicum maximum Jacq.) were sown. When the guinea grass reached 5.2 to 6.0-leaf stage, seeds of guinea grass were further sown in the same pot assuming conditions such that weeds would later grow. On the next day, predetermined amounts of ONEHOPE NYUZAI (tradename), Click (tradename), Spectrum (tradename) and Cadou (tradename) were diluted with water in an amount corresponding to 300 L/ha and applied for soil treatment and for foliar treatment by a small sprayer.
On the 31 st day after treatment, the state of growth of the guinea grass was visually observed to determine the growth inhibition rate (%). The growth inhibition rate (%) (measured value) and the growth inhibition rate (%) calculated in the same manner as in the above Test Example 1 are shown in Table 15.

For assay [5] the test system is unchanged. In words: Test Example 17: pot test, soil and foliar treatment, visual growth inhibition. Particulars: Megathyrsus maximus, 1000 g/ha, 29th day after treatment, read-out: Growth inhibition rate (%) of guinea grass Measured value. The protocol:
Upland field soil was put into a 1/1,000,000 ha pot, and seeds of guinea grass (Panicum maximum Jacq.) were sown. When the guinea grass reached 5.2 to 6.0-leaf stage, seeds of guinea grass were further sown in the same pot assuming conditions such that weeds would later grow. Three days later, predetermined amounts of ONEHOPE NYUZAI (tradename), Click (tradename) and Spectrum (tradename) were diluted with water in an amount corresponding to 300 L/ha and applied for soil treatment and for foliar treatment by a small sprayer.
On the 29th day after treatment, the state of growth of the guinea grass was visually observed to determine the growth inhibition rate (%). The growth inhibition rate (%) (measured value) and the growth inhibition rate (%) calculated in the same manner as in the above Test Example 1 are shown in Table 17.

Assay [6] concerns wild oat (Avena fatua L.). In words: Test Example 4: pot test, soil treatment, visual growth inhibition. Particulars: soil, read-out: Growth inhibition rate (%) of wild oat Measured value. As to the method:
Upland field soil was put into a 1/1,000,000 ha pot, and seeds of wild oat (Avena fatua L.) were sown. On the next day, predetermined amounts of ONEHOPE NYUZAI (tradename), Click (tradename) and a wettable powder containing bicyclopyrone prepared in accordance with a conventional formulation method were diluted with water (in an amount corresponding to 1,000 L/ha) and applied for soil treatment by a small sprayer.
On the 28th day after treatment, the state of growth of the wild oat was visually observed to determine the growth inhibition rate (%). The growth inhibition rate (%) (measured value) and the growth inhibition rate (%) calculated in the same manner as in the above Test Example 1 are shown in Table 4.

Assay [7] has as its system korean lespedeza (Kummerowia stipulacea (Maxim.) Makino). As to the kind of experiment: Test Example 6: pot test, soil treatment, visual growth inhibition. The note with it: soil, read-out: Growth inhibition rate (%) of korean lespedeza Measured value. The protocol:
Upland field soil was put into a 1/300,000 ha pot, and seeds of korean lespedeza (Kummerowia stipulacea (Maxim.) Makino) were sown. On the next day, predetermined amounts of ONEHOPE NYUZAI (tradename), Click (tradename), Mikado (tradename) and a wettable powder containing bicyclopyrone prepared in accordance with a conventional formulation method were diluted with water (in an amount corresponding to 1,000 L/ha) and applied for soil treatment by a small sprayer.
On the 14th day after treatment, the state of growth of the korean lespedeza was visually observed to determine the growth inhibition rate (%). The growth inhibition rate (%) (measured value) and the growth inhibition rate (%) calculated in the same manner as in the above Test Example 1 are shown in Table 6.

In assay [8] the test system is sunn-hemp (Crotalaria juncea L.). In words: Test Example 7: pot test, soil treatment, visual growth inhibition. Particulars: soil, read-out: Growth inhibition rate (%) of sunn-hemp Measured value. The protocol:
Upland field soil was put into a 1/300,000 ha pot, and seeds of sunn-hemp (Crotalaria juncea L.) were sown. On the next day, predetermined amounts of ONEHOPE NYUZAI (tradename), Click (tradename), Mikado (tradename) and a wettable powder containing bicyclopyrone prepared in accordance with a conventional formulation method were diluted with water (in an amount corresponding to 1,000 L/ha) and applied for soil treatment by a small sprayer.
On the 28th day after treatment, the state of growth of the sunn-hemp was visually observed to determine the growth inhibition rate (%). The growth inhibition rate (%) (measured value) and the growth inhibition rate (%) calculated in the same manner as in the above Test Example 1 are shown in Table 7.

Assay [9] has as its system Japanese millet (Echinochloa utilis Ohwi et Yabuno). In words: Test Example 9: pot test, soil treatment, visual growth inhibition. The note with it: soil, read-out: Growth inhibition rate (%) of Japanese millet Measured value. As to the method: Upland field soil was put into a 1/300,000 ha pot, and seeds of Japanese millet (Echinochloa utilis Ohwi et Yabuno) were sown. On the next day, predetermined amounts of ONEHOPE NYUZAI (tradename), Click (tradename), Mikado (tradename) and a wettable powder containing bicyclopyrone prepared in accordance with a conventional formulation method were diluted with water (in an amount corresponding to 1,000 L/ha) and applied for soil treatment by a small sprayer.
On the 28th day after treatment, the state of growth of the Japanese millet was visually observed to determine the growth inhibition rate (%). The growth inhibition rate (%) (measured value) and the growth inhibition rate (%) calculated in the same manner as in the above Test Example 1 are shown in Table 9.

In assay [10] the test system is annual ragweed (Ambrosia artemisiifolia L.). As to the kind of experiment: Test Example 11: pot test, soil treatment, visual growth inhibition. The note with it: soil, read-out: Growth inhibition rate (%) of annual ragweed Measured value. The protocol: Upland field soil was put into a 1/300,000 ha pot, and seeds of annual ragweed (Ambrosia artemisiifolia L.) were sown. On the next day, predetermined amounts of ONEHOPE NYUZAI (tradename), Click (tradename), Mikado (tradename) and a wettable powder containing bicyclopyrone prepared in accordance with a conventional formulation method were diluted with water (in an amount corresponding to 1,000 L/ha) and applied for soil treatment by a small sprayer.
On the 28th day after treatment, the state of growth of the annual ragweed was visually observed to determine the growth inhibition rate (%). The growth inhibition rate (%) (measured value) and the growth inhibition rate (%) calculated in the same manner as in the above Test Example 1 are shown in Table 11.

For assay [11], the system named is Japanese millet (Echinochloa utilis Ohwi et Yabuno). In words: Test Example 13: pot test, soil and foliar treatment, visual growth inhibition. Particulars: read-out: Growth inhibition rate (%) of Japanese millet Measured value. As to the method:
Upland field soil was put into a 1/1,000,000 ha pot, and seeds of Japanese millet (Echinochloa utilis Ohwi et Yabuno) were sown. When the Japanese millet reached 3.8 to 4.0-leaf stage, seeds of Japanese millet were further sown in the same pot. On the next day, predetermined amounts of ONEHOPE NYUZAI (tradename), Click (tradename) and a wettable powder containing bicyclopyrone prepared in accordance with a conventional formulation method were diluted with water (in an amount corresponding to 1,000 L/ha) and applied for soil treatment and for foliar treatment by a small sprayer.
On the 28th day after treatment, the state of growth of the Japanese millet was visually observed to determine the growth inhibition rate (%). The growth inhibition rate (%) (measured value) and the growth inhibition rate (%) calculated in the same manner as in the above Test Example 1 are shown in Table 13.

For assay [12], the system named is velvetleaf (Abutilon theophrasti Medic.). As to the kind of experiment: Test Example 14: pot test, soil and foliar treatment, visual growth inhibition. Particulars: read-out: Growth inhibition rate (%) of velvetleaf Measured value.
Description: as §1, with “velvetleaf (Abutilon theophrasti Medic.)” for “guinea grass (Panicum maximum Jacq.)”, “velvetleaf” for “guinea grass”, “4.0” for “5.2”, “4.3-leaf” for “6.0-leaf”, “Callisto (tradename), Mikado (tradename), a wettable powder containing bicyclopyrone as an active ingredient” for “Spectrum (tradename)”, “Clio” for “Cadou”
On the 31 st day after treatment, the state of growth of the velvetleaf was visually observed to determine the growth inhibition rate (%). The growth inhibition rate (%) (measured value) and the growth inhibition rate (%) calculated in the same manner as in the above Test Example 1 are shown in Table 14.

For assay [13] the test system is unchanged. As to the kind of experiment: Test Example 16: pot test, soil and foliar treatment, visual growth inhibition. Particulars: read-out: Growth inhibition rate (%) of velvetleaf Measured value. The source says: Upland field soil was put into a 1/1,000,000 ha pot, and seeds of velvetleaf (Abutilon theophrasti Medic.) were sown. When the velvetleaf reached 4.0 to 4.3-leaf stage, seeds of velvetleaf were further sown in the same pot assuming conditions such that weeds would later grow. Three days later, predetermined amounts of ONEHOPE NYUZAI (tradename), Click (tradename), Callisto (tradename), Mikado (tradename), a wettable powder containing bicyclopyrone as an active ingredient and Clio (tradename) were diluted with water in an amount corresponding to 300 L/ha and applied for soil treatment and for foliar treatment by a small sprayer.
On the 29th day after treatment, the state of growth of the velvetleaf was visually observed to determine the growth inhibition rate (%). The growth inhibition rate (%) (measured value) and the growth inhibition rate (%) calculated in the same manner as in the above Test Example 1 are shown in Table 16.

Turning to `COC[C@H](C)N(C(=O)CCl)c1c(C)csc1C` [Dimethenamid-P, (S)-2-chloro-N-(2,4-dimethyl-3-thienyl)-N-(2-methoxy-1-methylethyl)acetamide], the inhibition at 1000 g/ha was 0% in assay [1], 60% in assay [4] (1000 g/ha) and 55% in assay [5]. For the same compound, in assay [2], the inhibition at 2000 g/ha is 40%. In addition, the inhibition at 200 g/ha in [3] stood at 0%. Besides, the inhibition at 500 g/ha in [4] (500 g/ha) was 57%.
Take `COCCOCc1nc(C(F)(F)F)ccc1C(=O)C1=C(O)C2CCC(C2)C1=O` (stereo not drawn) [Bicyclopyrone, 4-hydroxy-3-{2-[(2-methoxyethoxy)methyl]-6-(trifluoromethyl)-3-pyridylcarbonyl}bicyclo[3.2.1]oct-3-en-2-one]: the inhibition at 100 g/ha was 25% in assay [6], 88% in assay [10] and 78% in assay [11]. The inhibition at 400 g/ha in [7] was determined as 15%. Further, the values for the inhibition at 25 g/ha in [8] and in assay [9] were 20% and 83%, respectively. Moreover, in assay [12], the inhibition at 50 g/ha worked out at 88%. Moreover, in assay [12], the inhibition at 150 g/ha is 93%. Besides, in assay [13], the inhibition at 75 g/ha is 89%.

These data come from patent publication EP2832223A1, “HERBICIDAL COMPOSITION” (Ishihara Sangyo Kaisha, Ltd., priority 2012, dated 2013).
